Assay results reported in US9511073B2, “Aromatic amides and uses thereof” (TAXIS Pharmaceuticals, Inc., priority 2011, dated 2016).
≈ marks a conversion by molar mass, not a printed value.

Tested on: Staphylococcus aureus (Isolate ID ATCC 29213)
Test: Bacterial assay: MIC by broth microdilution or agar dilution (CLSI), S. aureus ATCC 29213
Format: cell-based
Settings: S. aureus (ATCC29213)
Summary of the method: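 MICs by CLSI broth microdilution or agar dilution against S. aureus ATCC 29213 and its FtsZ-G196A mutant. Values reported as ranges: A ≤0.25 μg/mL, B >0.25–1.0, C >1.0–16, D >16 μg/mL.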

With NC(=O)c1c(F)ccc(OC(CC(O)CO)c2nc(-c3ccc(C(F)(F)F)cc3)c(Br)o2)c1F (centres unmarked) [Compound 156, 3-(1-(5-bromo-4-(4-(trifluoromethyl)phenyl)oxazol-2-yl)-3,4-dihydroxybutoxy)-2,6-difluorobenzamide] the “S. aureus MIC (μg/mL) Activity Range” value was “C (activity>1.0 μg/mL-16 μg/mL)”.

Same assay, conditions: Staphylococcus aureus, ATCC29213, read-out: S. aureus MIC (μg/mL) Activity Range, S. aureus (ATCC29213)

Compared with NC(=O)c1c(F)ccc(O[C@H](CO)c2nc3cc(Cl)cnc3s2)c1F [Compound 266B, (R)-3-(1-(6-chlorothiazolo[5,4-b]pyridin-2-yl)-2-hydroxyethoxy)-2,6-difluorobenzamide], Cc1ccc(-c2csc(C(CO)Oc3ccc(F)c(C(N)=O)c3F)n2)cn1 (centres unmarked) [Compound 264, 2,6-difluoro-3-(2-hydroxy-1-(4-(6-methylpyridin-3-yl)thiazol-2-yl)ethoxy)benzamide] is higher in MIC: 1 to 16 µg/mL (≈ 2.59 to 41.5 µM) for the first, over 16 µg/mL for the second.

COCCOc1ccc(-c2nc(C(CO)Oc3ccc(F)c(C(N)=O)c3F)oc2Br)cc1 (centres unmarked) [Compound 242, 3-(1-(5-bromo-4-(4-(2-methoxyethoxy)phenyl)oxazol-2-yl)-2-hydroxyethoxy)-2,6-difluorobenzamide] and COC(=O)c1ccc(-c2nc(C(CO)Oc3ccc(F)c(C(N)=O)c3F)oc2Br)cc1 (centres unmarked) [Compound 246, methyl 4-(5-bromo-2-(1-(3-carbamoyl-2,4-difluorophenoxy)-2-hydroxyethyl)oxazol-4-yl)benzoate] fall in the same range of MIC: 1 to 16 µg/mL (≈ 1.95 to 31.2 µM) for the first, 1 to 16 µg/mL (≈ 2.01 to 32.2 µM) for the second.

NCC(Oc1ccc(F)c(C(N)=O)c1F)c1nc(-c2ccc(C(F)(F)F)cc2)c(Br)o1 (centres unmarked) [Compound 290, 3-(2-amino-1-(5-bromo-4-(4-(trifluoromethyl)phenyl)oxazol-2-yl)ethoxy)-2,6-difluorobenzamide] and C=CCC(Oc1ccc(F)c(C(N)=O)c1F)c1nc(-c2ccc(C(F)(F)F)cc2)c(Br)o1 (centres unmarked) [Compound 106, 3-((1-(5-bromo-4-(4-(trifluoromethyl)phenyl)oxazol-2-yl)but-3-en-1-yl)oxy)-2,6-difluorobenzamide] fall in the same range of MIC: 1 to 16 µg/mL (≈ 1.98 to 31.6 µM) for the first, 1 to 16 µg/mL (≈ 1.93 to 30.9 µM) for the second.

First: COc1cccc(-c2nc(C(COC(C)=O)Oc3ccc(F)c(C(N)=O)c3F)oc2Br)c1 (centres unmarked) [Compound 108, 2-(5-bromo-4-(3-methoxyphenyl)oxazol-2-yl)-2-(3-carbamoyl-2,4-difluorophenoxy)ethyl acetate]
Second: CC(=O)OCC(Oc1ccc(F)c(C(N)=O)c1F)c1nc(-c2ccc(OC(F)(F)F)cc2)c(Br)o1 (centres unmarked) [Compound 115, 2-(5-bromo-4-(4-(trifluoromethoxy)phenyl)oxazol-2-yl)-2-(3-carbamoyl-2,4-difluorophenoxy)ethyl acetate]
The MIC of the first is higher: over 16 µg/mL for the first, under 0.25 µg/mL for the second.

C[C@@H](Oc1cccc(C(N)=O)c1F)c1nc(-c2ccc(C(F)(F)F)cc2)c(Br)o1 [Compound 299] and CN(C)CCNC(=O)OCC(Oc1ccc(F)c(C(N)=O)c1F)c1nc(-c2ccc(C(F)(F)F)cc2)c(Br)o1 (centres unmarked) [Compound 134, 2-(5-bromo-4-(4-(trifluoromethyl)phenyl)oxazol-2-yl)-2-(3-carbamoyl-2,4-difluorophenoxy)ethyl (2-(dimethylamino)ethyl)carbamate] fall in the same range of MIC: 1 to 16 µg/mL (≈ 2.11 to 33.8 µM) for the first, 1 to 16 µg/mL (≈ 1.61 to 25.8 µM) for the second.

C=CCC(Oc1ccc(F)c(C(N)=O)c1F)c1nc(-c2ccc(Cl)cc2)c(Br)o1 (centres unmarked) [Compound 104, 3-((1-(5-bromo-4-(4-chlorophenyl)oxazol-2-yl)but-3-en-1-yl)oxy)-2,6-difluorobenzamide] and N#Cc1ccc(-c2nc(C(CO)Oc3ccc(F)c(C(N)=O)c3F)oc2Br)cc1 (centres unmarked) [Compound 80, 3-(1-(5-bromo-4-(4-cyanophenyl)oxazol-2-yl)-2-hydroxyethoxy)-2,6-difluorobenzamide] fall in the same range of MIC: 1 to 16 µg/mL (≈ 2.07 to 33.1 µM) for the first, 1 to 16 µg/mL (≈ 2.15 to 34.5 µM) for the second.

Compared with NC(=O)c1c(F)ccc(OC(COC(=O)CCCN2C(=O)c3ccccc3C2=O)c2nc(-c3ccc(C(F)(F)F)cc3)c(Br)o2)c1F (centres unmarked) [Compound 69, 2-(5-bromo-4-(4-(trifluoromethyl)phenyl)oxazol-2-yl)-2-(3-carbamoyl-2,4-difluorophenoxy)ethyl 4-(1,3-dioxoisoindolin-2-yl)butanoate], NC(=O)c1c(F)ccc(OC(COC(=O)CCN2C(=O)c3ccccc3C2=O)c2nc(-c3ccc(C(F)(F)F)cc3)c(Br)o2)c1F (centres unmarked) [Compound 64, 2-(5-bromo-4-(4-(trifluoromethyl)phenyl)oxazol-2-yl)-2-(3-carbamoyl-2,4-difluorophenoxy)ethyl 3-(1,3-dioxoisoindolin-2-yl)propanoate] is lower in MIC: 0.25 to 1 µg/mL (≈ 0.346 to 1.38 µM) for the first, under 0.25 µg/mL for the second.

Compared with NC(=O)c1c(F)ccc(OC(C(N)=O)c2nc(-c3ccc(Cl)cc3)cs2)c1F (centres unmarked) [Compound 40, 3-(2-amino-1-(4-(4-chlorophenyl)thiazol-2-yl)-2-oxoethoxy)-2,6-difluorobenzamide], NC(=O)c1c(F)ccc(OC(C(=O)O)c2nc(-c3ccc(Cl)cc3)co2)c1F (centres unmarked) [Compound 12, 2-(3-carbamoyl-2,4-difluorophenoxy)-2-(4-(4-chlorophenyl)oxazol-2-yl)acetic acid] is higher in MIC: 1 to 16 µg/mL (≈ 2.36 to 37.8 µM) for the first, over 16 µg/mL for the second.

First: C=CCc1oc(C(C)Oc2ccc(F)c(C(N)=O)c2F)nc1-c1ccc(OC(F)(F)F)cc1 (centres unmarked) [Compound 17, 3-(1-(5-allyl-4-(4-(trifluoromethoxy)phenyl)oxazol-2-yl)ethoxy)-2,6-difluorobenzamide]
Second: CCCCc1oc(C(CO)Oc2ccc(F)c(C(N)=O)c2F)nc1-c1ccc(C(F)(F)F)cc1 (centres unmarked) [Compound 277, 3-(1-(5-butyl-4-(4-(trifluoromethyl)phenyl)oxazol-2-yl)-2-hydroxyethoxy)-2,6-difluorobenzamide]
The MIC of the first is lower: 0.25 to 1 µg/mL (≈ 0.534 to 2.14 µM) for the first, 1 to 16 µg/mL (≈ 2.06 to 33 µM) for the second.

First: CN(Cc1ccncn1)C(=O)OCC(Oc1ccc(F)c(C(N)=O)c1F)c1nc(-c2ccc(C(F)(F)F)cc2)c(Br)o1 (centres unmarked) [Compound 197, 2-(5-bromo-4-(4-(trifluoromethyl)phenyl)oxazol-2-yl)-2-(3-carbamoyl-2,4-difluorophenoxy)ethyl methyl(pyrimidin-4-ylmethyl)carbamate]
Second: CN(Cc1ccccn1)C(=O)OCC(Oc1ccc(F)c(C(N)=O)c1F)c1nc(-c2ccc(C(F)(F)F)cc2)c(Br)o1 (centres unmarked) [Compound 191, 2-(5-bromo-4-(4-(trifluoromethyl)phenyl)oxazol-2-yl)-2-(3-carbamoyl-2,4-difluorophenoxy)ethyl methyl(pyridin-2-ylmethyl)carbamate]
The MIC of the first is lower: 0.25 to 1 µg/mL (≈ 0.381 to 1.52 µM) for the first, 1 to 16 µg/mL (≈ 1.53 to 24.4 µM) for the second.

Compared with NC(=O)c1c(F)ccc(OC(COC(=O)Nc2nnn[nH]2)c2nc(-c3ccc(C(F)(F)F)cc3)c(Br)o2)c1F (centres unmarked) [Compound 177, 2-(5-bromo-4-(4-(trifluoromethyl)phenyl)oxazol-2-yl)-2-(3-carbamoyl-2,4-difluorophenoxy)ethyl 1H-tetrazol-5-ylcarbamate], COc1cc(CNC(=O)OCC(Oc2ccc(F)c(C(N)=O)c2F)c2nc(-c3ccc(C(F)(F)F)cc3)c(Br)o2)ccn1 (centres unmarked) [Compound 209, 2-(5-bromo-4-(4-(trifluoromethyl)phenyl)oxazol-2-yl)-2-(3-carbamoyl-2,4-difluorophenoxy)ethyl ((2-methoxypyridin-4-yl)methyl)carbamate] is lower in MIC: over 16 µg/mL for the first, 0.25 to 1 µg/mL (≈ 0.372 to 1.49 µM) for the second.

Compared with NC(=O)c1c(F)ccc(O[C@H](CO)c2nc(-c3ccc(Cl)s3)c(Br)o2)c1F [Compound 250B, (R)-3-(1-(5-bromo-4-(5-chlorothiophen-2-yl)oxazol-2-yl)-2-hydroxyethoxy)-2,6-difluorobenzamide], NC(=O)c1c(F)ccc(OC(CO)c2nc(-c3ccc(F)c(F)c3)c(Br)o2)c1F (centres unmarked) [Compound 248, 3-(1-(5-bromo-4-(3,4-difluorophenyl)oxazol-2-yl)-2-hydroxyethoxy)-2,6-difluorobenzamide] is higher in MIC: under 0.25 µg/mL for the first, 1 to 16 µg/mL (≈ 2.1 to 33.7 µM) for the second.

First: CNc1ccc(-c2nc(C(CO)Oc3ccc(F)c(C(N)=O)c3F)oc2Br)cn1 (centres unmarked) [Compound 224, 3-(1-(5-bromo-4-(6-(methylamino)pyridin-3-yl)oxazol-2-yl)-2-hydroxyethoxy)-2,6-difluorobenzamide]
Second: N#Cc1ccc(-c2nc([C@@H](CO)Oc3ccc(F)c(C(N)=O)c3F)oc2Br)cn1 [Compound 249B, (R)-3-(1-(5-bromo-4-(6-cyanopyridin-3-yl)oxazol-2-yl)-2-hydroxyethoxy)-2,6-difluorobenzamide]
The MIC of the first is higher: over 16 µg/mL for the first, 1 to 16 µg/mL (≈ 2.15 to 34.4 µM) for the second.

Compared with COc1cc(Cl)ccc1-c1coc(C(CO)Oc2ccc(F)c(C(N)=O)c2F)n1 (centres unmarked) [Compound 227, 3-(1-(4-(4-chloro-2-methoxyphenyl)oxazol-2-yl)-2-hydroxyethoxy)-2,6-difluorobenzamide], COc1cc(Cl)c(Br)cc1-c1nc(C(CO)Oc2ccc(F)c(C(N)=O)c2F)oc1Br (centres unmarked) [Compound 232, 3-(1-(5-bromo-4-(5-bromo-4-chloro-2-methoxyphenyl)oxazol-2-yl)-2-hydroxyethoxy)-2,6-difluorobenzamide] is lower in MIC: over 16 µg/mL for the first, 1 to 16 µg/mL (≈ 1.72 to 27.5 µM) for the second.

Compared with CCNC(=O)NCC(Oc1ccc(F)c(C(N)=O)c1F)c1nc(-c2ccc(C(F)(F)F)cc2)co1 (centres unmarked) [Compound 286, 3-(2-(3-ethylureido)-1-(4-(4-(trifluoromethyl)phenyl)oxazol-2-yl)ethoxy)-2,6-difluorobenzamide], NC(=O)c1c(F)ccc(O[C@H](CO)c2nc(-c3ccc(C(F)(F)F)cc3)co2)c1F [Compound 272B, (R)-2,6-difluoro-3-(2-hydroxy-1-(4-(4-(trifluoromethyl)phenyl)oxazol-2-yl)ethoxy)benzamide] is lower in MIC: over 16 µg/mL for the first, 1 to 16 µg/mL (≈ 2.33 to 37.4 µM) for the second.

Compared with CC(Oc1ccc(F)c(C(N)=O)c1F)c1nc(Br)cs1 (centres unmarked) [Compound 2, 3-(1-(4-bromothiazol-2-yl)ethoxy)-2,6-difluorobenzamide], CCOC(=O)C(Oc1ccc(F)c(C(N)=O)c1F)c1csc(-c2ccc(C(F)(F)F)cc2)n1 (centres unmarked) [Compound 125, ethyl 2-(3-carbamoyl-2,4-difluorophenoxy)-2-(2-(4-(trifluoromethyl)phenyl)thiazol-4-yl)acetate] is lower in MIC: 1 to 16 µg/mL (≈ 2.75 to 44.1 µM) for the first, 0.25 to 1 µg/mL (≈ 0.514 to 2.06 µM) for the second.

First: NCC(Oc1ccc(F)c(C(N)=O)c1F)c1nc(-c2ccc(C(F)(F)F)cc2)co1 (centres unmarked) [Compound 281, 3-(2-amino-1-(4-(4-(trifluoromethyl)phenyl)oxazol-2-yl)ethoxy)-2,6-difluorobenzamide]
Second: NC(=O)c1c(F)ccc(OC(CNC(=O)OCc2ccccc2)c2nc(-c3ccc(C(F)(F)F)cc3)c(Br)o2)c1F (centres unmarked) [Compound 280, benzyl (2-(5-bromo-4-(4-(trifluoromethyl)phenyl)oxazol-2-yl)-2-(3-carbamoyl-2,4-difluorophenoxy)ethyl)carbamate]
The MIC of the first is higher: over 16 µg/mL for the first, 0.25 to 1 µg/mL (≈ 0.39 to 1.56 µM) for the second.
